Measurements from patent publication US11613556B2, “Oxysterols and methods of use thereof” (Sage Therapeutics, Inc., priority 2016, dated 2023).
Where two headings read alike, the source gives them in different places.

Assays:
[1] = target: GluN1/GluN2A glutamate receptors (human GRIN1/GRIN2A) expressed in HEK293 cells (Homo sapiens (Human), UniProt Q05586+Q12879); test: Whole-cell patch clamp of mammalian cells (Ionworks Barracuda), positive allosteric modulation, GluN1/GluN2A; type: cell-based; settings: for Emax: read-out: GluN2A PCA EMax (%)
GluN1/GluN2A glutamate receptors (human GRIN1/GRIN2A) expressed in HEK293 cells, sequence (Q12879 whole entry, looked up, other chains not shown): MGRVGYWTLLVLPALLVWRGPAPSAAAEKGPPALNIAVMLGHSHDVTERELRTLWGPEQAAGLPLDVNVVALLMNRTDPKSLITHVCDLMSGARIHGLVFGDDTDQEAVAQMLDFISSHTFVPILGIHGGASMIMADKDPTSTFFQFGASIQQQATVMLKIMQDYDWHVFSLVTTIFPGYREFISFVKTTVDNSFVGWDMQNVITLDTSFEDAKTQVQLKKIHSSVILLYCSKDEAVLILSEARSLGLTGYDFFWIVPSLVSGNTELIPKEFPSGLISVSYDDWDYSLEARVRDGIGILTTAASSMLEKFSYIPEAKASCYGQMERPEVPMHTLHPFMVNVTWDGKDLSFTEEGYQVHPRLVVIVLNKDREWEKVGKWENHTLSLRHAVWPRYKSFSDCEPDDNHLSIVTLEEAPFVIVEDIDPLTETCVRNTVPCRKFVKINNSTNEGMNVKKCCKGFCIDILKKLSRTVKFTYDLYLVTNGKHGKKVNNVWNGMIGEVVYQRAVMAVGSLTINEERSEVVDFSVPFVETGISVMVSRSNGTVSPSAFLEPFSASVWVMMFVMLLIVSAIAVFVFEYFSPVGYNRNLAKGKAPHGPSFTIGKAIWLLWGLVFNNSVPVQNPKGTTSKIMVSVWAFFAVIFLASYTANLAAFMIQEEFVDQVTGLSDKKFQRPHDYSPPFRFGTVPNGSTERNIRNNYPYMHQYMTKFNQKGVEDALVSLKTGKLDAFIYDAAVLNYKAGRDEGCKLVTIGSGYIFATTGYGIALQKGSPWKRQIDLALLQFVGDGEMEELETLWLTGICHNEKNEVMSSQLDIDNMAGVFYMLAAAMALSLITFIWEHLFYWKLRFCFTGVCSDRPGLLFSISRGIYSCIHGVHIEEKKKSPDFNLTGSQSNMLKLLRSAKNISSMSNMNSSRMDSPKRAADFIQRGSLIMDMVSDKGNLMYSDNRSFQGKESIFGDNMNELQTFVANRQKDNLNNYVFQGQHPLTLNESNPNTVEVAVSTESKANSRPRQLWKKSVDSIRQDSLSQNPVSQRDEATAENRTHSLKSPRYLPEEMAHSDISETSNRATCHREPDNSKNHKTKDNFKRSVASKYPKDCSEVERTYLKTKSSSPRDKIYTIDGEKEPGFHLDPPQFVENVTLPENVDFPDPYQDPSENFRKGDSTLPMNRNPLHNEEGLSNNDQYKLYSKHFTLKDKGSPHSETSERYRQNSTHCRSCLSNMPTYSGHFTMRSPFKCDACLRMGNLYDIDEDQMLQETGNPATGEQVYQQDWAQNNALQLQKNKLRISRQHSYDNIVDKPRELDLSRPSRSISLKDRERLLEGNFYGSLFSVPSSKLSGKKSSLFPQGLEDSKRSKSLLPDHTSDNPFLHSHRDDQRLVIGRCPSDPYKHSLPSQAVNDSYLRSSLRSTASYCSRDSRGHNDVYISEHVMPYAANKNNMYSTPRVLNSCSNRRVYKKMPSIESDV
Experimental: (§1) NMDA potentiation in mammalian cells which expressed NMDA receptors was assessed using the automatic patch-clamp system can be used determine the NAM activity of compounds as described below. An whole cell patch-clamp system can be used determine the PAM activity of compounds as described below.
(§2) The measurements were performed using Ion Works Barracuda platform following this procedure:
(§3) Electrophysiological Procedures: • a) Intracellular solution (mM): 50 mM CsCl, 90 mM CsF, 2 mM MgCl2, 5 mM EGTA, 10 mM HEPES. Adjust to pH 7.2 with CsOH. • b) Extracellular solution, HB-PS (composition in mM): NaCl, 137; KCl, 1.0; CaCl2, 5; HEPES, 10; Glucose, 10; pH adjusted to 7.4 with NaOH (refrigerated until use). • c) Holding potential: −70 mV, potential during agonist/PAM application: −40 mV.
(§4) Recording Procedure: • a) Extracellular buffer will be loaded into the PPC plate wells (11 μL per well). Cell suspension will be pipetted into the wells (9 μL per well) of the PPC planar electrode. • b) Whole-cell recording configuration will be established via patch perforation with membrane currents recorded by on-board patch clamp amplifiers. • c) Two recordings (scans) will be performed. First, during pre-application of test article alone (duration of pre-application—5 min) and second, during test articles and agonist (EC20 L-glutamate and 30 μM glycine) co-application to detect positive modulatory effects of the test article.
(§5) Test Article Administration: The first pre-application will consist of the addition of 20 μL of 2× concentrated test article solution and, second, of 20 μL of 1× concentrated test article and agonist at 10 μL/s (2 second total application time).
(§6) Potentiating Effect of Positive Allosteric Modulators (PAM) on the Channel
(§7) The maximal amplitude of the evoked currents are measured and defined as Peak Current Amplitude (PCA).

[2] = target: GluN2B glutamate receptors expressed in mammalian cells (Homo sapiens (Human), UniProt Q05586+Q13224); test: Whole-cell patch clamp of mammalian cells (Ionworks Barracuda), positive allosteric modulation, GluN2B; type: cell-based; settings: for Emax: read-out: GluN2B PCA EMax (%)
GluN2B glutamate receptors expressed in mammalian cells, sequence (Q13224 27-1484, other chains not shown): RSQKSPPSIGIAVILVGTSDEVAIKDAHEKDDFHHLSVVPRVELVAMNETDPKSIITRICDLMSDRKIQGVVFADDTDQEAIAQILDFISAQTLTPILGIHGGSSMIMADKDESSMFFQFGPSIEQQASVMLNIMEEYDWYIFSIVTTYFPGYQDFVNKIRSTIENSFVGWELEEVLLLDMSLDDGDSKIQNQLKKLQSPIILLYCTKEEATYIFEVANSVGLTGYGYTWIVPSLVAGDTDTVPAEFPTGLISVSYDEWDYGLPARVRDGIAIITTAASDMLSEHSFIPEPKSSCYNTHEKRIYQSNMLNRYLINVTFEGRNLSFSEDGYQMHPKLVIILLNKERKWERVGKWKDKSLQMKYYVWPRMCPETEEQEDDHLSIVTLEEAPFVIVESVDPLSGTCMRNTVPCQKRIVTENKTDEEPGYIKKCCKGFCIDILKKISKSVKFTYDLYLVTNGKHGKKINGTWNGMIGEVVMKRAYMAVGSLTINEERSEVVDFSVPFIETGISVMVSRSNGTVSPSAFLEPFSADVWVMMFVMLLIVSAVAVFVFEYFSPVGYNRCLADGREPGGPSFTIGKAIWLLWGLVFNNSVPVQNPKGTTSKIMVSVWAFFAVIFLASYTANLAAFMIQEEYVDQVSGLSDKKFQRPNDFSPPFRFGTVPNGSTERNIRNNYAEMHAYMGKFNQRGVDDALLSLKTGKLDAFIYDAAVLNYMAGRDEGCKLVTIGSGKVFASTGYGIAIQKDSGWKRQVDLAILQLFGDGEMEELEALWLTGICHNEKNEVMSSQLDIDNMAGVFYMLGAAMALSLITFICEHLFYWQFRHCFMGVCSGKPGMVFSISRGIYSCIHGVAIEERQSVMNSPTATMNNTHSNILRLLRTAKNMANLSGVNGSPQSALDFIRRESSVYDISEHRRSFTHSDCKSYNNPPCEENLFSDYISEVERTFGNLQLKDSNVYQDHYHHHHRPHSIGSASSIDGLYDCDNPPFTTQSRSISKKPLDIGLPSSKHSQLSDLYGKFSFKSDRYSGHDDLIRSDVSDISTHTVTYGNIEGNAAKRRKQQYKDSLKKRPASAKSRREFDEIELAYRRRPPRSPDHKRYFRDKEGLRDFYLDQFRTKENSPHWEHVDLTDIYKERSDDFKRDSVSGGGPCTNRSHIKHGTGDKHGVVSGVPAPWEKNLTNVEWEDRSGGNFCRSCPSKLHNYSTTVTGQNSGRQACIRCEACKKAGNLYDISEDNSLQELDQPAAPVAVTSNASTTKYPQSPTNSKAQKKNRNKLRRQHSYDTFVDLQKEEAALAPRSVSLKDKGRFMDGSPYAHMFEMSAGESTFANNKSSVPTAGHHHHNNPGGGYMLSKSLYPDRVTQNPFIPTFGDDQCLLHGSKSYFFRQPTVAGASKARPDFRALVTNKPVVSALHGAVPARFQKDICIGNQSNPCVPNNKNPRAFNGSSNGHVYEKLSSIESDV
Experimental: as §1, §2, §3, §4, §5, §6, §7

[3] = peak current amplitude, co-application with EC20 L-glutamate and 30 μM glycine, HEK293
[4] = peak current amplitude, co-application with EC20 L-glutamate and 30 μM glycine, read-out: GluN2B PCA EC50
[5] = peak current amplitude, co-application with EC20 L-glutamate and 30 μM glycine
[6] = peak current amplitude, co-application with EC20 L-glutamate and 30 μM glycine, HEK293, read-out: GluN2A PCA EC50

Which EC50 [1] does the source give for `CC[C@]1(O)CC[C@H]2C(=CC[C@@H]3[C@@H]2CC[C@]2(C)[C@@H]([C@H](C)[C@H](O)CCC(C)C)CC[C@@H]32)C1` [Compound 3, (3S,8R,9S,10R,13S,14S,17R)-3-ethyl-17-((2S,3R)-3-hydroxy-6-methylheptan-2-yl)-13-methyl-2,3,4,7,8,9,10,11,12,13,14,15,16,17-tetradecahydro-1H-cyclopenta[a]phenanthren-3-ol] here?
The EC50 was over 1000 nM.

What about the Emax [1, 3] of the same compound?
The Emax was under 100%.

What about the EC50 [2, 4] of the same compound?
Its EC50 is over 1000 nM.

What about the Emax [2, 5] of the same compound?
The Emax was under 100%.

What does the source list for `C[C@H]([C@H](O)C[C@H](O)c1ccccc1)[C@H]1CC[C@H]2[C@@H]3CC[C@H]4C[C@](O)(C(F)(F)F)CC[C@]4(C)[C@H]3CC[C@]12C` [Compound 13, (1S,3R,4S)-4-((3S,5S,8R,9S,10S,13S,14S,17R)-3-hydroxy-10,13-dimethyl-3-(trifluoromethyl)hexadecahydro-1H-cyclopenta[a]phenanthren-17-yl)-1-phenylpentane-1,3-diol]?
EC50 [1, 6]: 1 to 100 nM; Emax [1, 3]: < 100%; EC50 [2]: 1 to 100 nM; Emax [2]: 100 to 500%

`CC[C@]1(O)CC[C@@]2(C)[C@@H](CC[C@@H]3[C@@H]2CC[C@]2(C)[C@@H]([C@H](C)[C@H](O)CCC(C)C)CC[C@@H]32)C1` [Compound 24, (3S,5S,8R,9S,10S,13S,14S,17R)-3-ethyl-17-((2S,3R)-3-hydroxy-6-methylheptan-2-yl)-10,13-dimethylhexadecahydro-1H-cyclopenta[a]phenanthren-3-ol] was tested. Which EC50 [1, 6] did it give?
Its EC50 is over 1000 nM.

What about the Emax [1, 3] of the same compound?
Its Emax is under 100%.

What about the EC50 [2] of the same compound?
Its EC50 is over 1000 nM.

And the Emax [2]?
The Emax was under 100%.

`C[C@@H]([C@H]1CC[C@H]2[C@@H]3CC[C@H]4C[C@](O)(C(F)(F)F)CC[C@]4(C)[C@H]3CC[C@]12C)[C@@H](O)C[C@H](O)c1ccccc1` [Compound 25, (1S,3S,4S)-4-((3S,5S,8R,9S,10S,13S,14S,17R)-3-hydroxy-10,13-dimethyl-3-(trifluoromethyl)hexadecahydro-1H-cyclopenta[a]phenanthren-17-yl)-1-phenylpentane-1,3-diol] was tested. Which EC50 [1, 6] did it give?
Its EC50 is over 1000 nM.

And the Emax [1, 3]?
Its Emax is under 100%.

What about the EC50 [2] of the same compound?
The EC50 was over 1000 nM.

What about the Emax [2] of the same compound?
The Emax was under 100%.

With `CC[C@]1(O)CC[C@H]2[C@@H](CC[C@@H]3[C@@H]2CC[C@]2(C)[C@@H]([C@H](C)[C@@H](O)CCC(C)C)CC[C@@H]32)C1` [Compound 28, (3S,5S,8R,9R,10S,13S,14S,17R)-3-ethyl-17-((2S,3S)-3-hydroxy-6-methylheptan-2-yl)-13-methylhexadecahydro-1H-cyclopenta[a]phenanthren-3-ol] as the compound, how does the EC50 [1] read?
Its EC50 is over 1000 nM.

What about the Emax [1, 3] of the same compound?
Its Emax is under 100%.

And the EC50 [2, 4]?
The EC50 was over 1000 nM.

And the Emax [2, 5]?
The Emax was 100 to 500%.

What does the source list for `CC[C@]1(O)CC[C@@]2(C)[C@@H](CC[C@@H]3[C@@H]2CC[C@]2(C)[C@@H]([C@H](C)[C@@H](O)CCC(C)C)CC[C@@H]32)C1` [Compound 29, (3S,5S,8R,9S,10S,13S,14S,17R)-3-ethyl-17-((2S,3S)-3-hydroxy-6-methylheptan-2-yl)-10,13-dimethylhexadecahydro-1H-cyclopenta[a]phenanthren-3-ol]?
EC50 [1, 6]: > 1000 nM; Emax [1, 3]: < 100%; EC50 [2]: > 1000 nM; Emax [2]: < 100%

With `CC(C)CC[C@@H](O)[C@@H](C)[C@H]1CC[C@H]2[C@@H]3CC=C4C[C@@](C)(O)CC[C@]4(C)[C@H]3CC[C@]12C` [Compound 30, (3S,8S,9S,10R,13S,14S,17R)-17-((2S,3R)-3-hydroxy-6-methylheptan-2-yl)-3,10,13-trimethyl-2,3,4,7,8,9,10,11,12,13,14,15,16,17-tetradecahydro-1H-cyclopenta[a]phenanthren-3-ol] as the compound, how does the EC50 [1] read?
The EC50 was over 1000 nM.

And the Emax [1, 3]?
The Emax was 100 to 500%.

What about the EC50 [2, 4] of the same compound?
Its EC50 is over 1000 nM.

And the Emax [2, 5]?
The Emax was 100 to 500%.

Which results are given for `C[C@H]([C@H](O)C[C@@H](O)c1ccccc1)[C@H]1CC[C@H]2[C@@H]3CC[C@H]4C[C@](O)(C(F)(F)F)CC[C@]4(C)[C@H]3CC[C@]12C` [Compound 31, (1R,3R,4S)-4-((3S,5S,8R,9S,10S,13S,14S,17R)-3-hydroxy-10,13-dimethyl-3-(trifluoromethyl)hexadecahydro-1H-cyclopenta[a]phenanthren-17-yl)-1-phenylpentane-1,3-diol]?
EC50 [1, 6]: 1 to 100 nM; Emax [1, 3]: 100 to 500%; EC50 [2]: 100 to 1000 nM; Emax [2]: 100 to 500%

With `CC(C)CC[C@@H](O)[C@@H](C)[C@H]1CC[C@H]2[C@@H]3CC[C@@H]4C[C@@](C)(O)CC[C@]4(C)[C@H]3CC[C@]12C` [Compound 36, (3S,5R,8R,9S,10S,13S,14S,17R)-17-((2S,3R)-3-hydroxy-6-methylheptan-2-yl)-3,10,13-trimethylhexadecahydro-1H-cyclopenta[a]phenanthren-3-ol] as the compound, how does the EC50 [1] read?
Its EC50 is over 1000 nM.

And the Emax [1, 3]?
The Emax was under 100%.

And the EC50 [2, 4]?
The EC50 was over 1000 nM.

What about the Emax [2, 5] of the same compound?
The Emax was under 100%.

`CC[C@]1(O)CC[C@H]2C(=CC[C@@H]3[C@@H]2CC[C@]2(C)[C@@H]([C@H](C)[C@@H](O)CCC(C)C)CC[C@@H]32)C1` [Compound 44, (3S,8R,9S,10R,13S,14S,17R)-3-ethyl-17-((2S,3S)-3-hydroxy-6-methylheptan-2-yl)-13-methyl-2,3,4,7,8,9,10,11,12,13,14,15,16,17-tetradecahydro-1H-cyclopenta[a]phenanthren-3-ol] was tested. Which EC50 [1] did it give?
Its EC50 is over 1000 nM.

And the Emax [1, 3]?
The Emax was under 100%.

What about the EC50 [2, 4] of the same compound?
Its EC50 is over 1000 nM.

What about the Emax [2, 5] of the same compound?
The Emax was under 100%.

`CC(C)CC[C@@H](O)[C@@H](C)[C@H]1CC[C@H]2[C@@H]3CC[C@H]4C[C@@](C)(O)CC[C@]4(C)[C@H]3CC[C@]12C` [Compound 47, (3S,5S,8R,9S,10S,13S,14S,17R)-17-((2S,3R)-3-hydroxy-6-methylheptan-2-yl)-3,10,13-trimethylhexadecahydro-1H-cyclopenta[a]phenanthren-3-ol] was tested. Which EC50 [1] did it give?
The EC50 was over 1000 nM.

What about the Emax [1, 3] of the same compound?
The Emax was under 100%.

What about the EC50 [2, 4] of the same compound?
Its EC50 is over 1000 nM.

And the Emax [2, 5]?
Its Emax is under 100%.

What does the source list for `CC[C@]1(O)CC[C@@]2(C)C(=CC[C@H]3[C@@H]4CC[C@H]([C@H](C)[C@@H](O)CC5CCC(C)(C)CC5)[C@@]4(C)CC[C@@H]32)C1` [Compound 49, (3S,8S,9S,10R,13S,14S,17R)-17-((2S,3S)-4-(4,4-dimethylcyclohexyl)-3-hydroxybutan-2-yl)-3-ethyl-10,13-dimethyl-2,3,4,7,8,9,10,11,12,13,14,15,16,17-tetradecahydro-1H-cyclopenta[a]phenanthren-3-ol]?
EC50 [1]: > 1000 nM; Emax [1, 3]: < 100%; EC50 [2, 4]: > 1000 nM; Emax [2, 5]: < 100%

How did the EC50 [1] turn out when `CC[C@]1(O)CC[C@@]2(C)C(=CC[C@H]3[C@@H]4CC[C@H]([C@H](C)[C@H](O)CCC(C)C)[C@@]4(C)CC[C@@H]32)C1` [Compound 52, (3S,8S,9S,10R,13S,14S,17R)-3-ethyl-17-((2S,3R)-3-hydroxy-6-methylheptan-2-yl)-10,13-dimethyl-2,3,4,7,8,9,10,11,12,13,14,15,16,17-tetradecahydro-1H-cyclopenta[a]phenanthren-3-ol] was run?
The EC50 was over 1000 nM.

And the Emax [1, 3]?
The Emax was under 100%.

What about the EC50 [2, 4] of the same compound?
The EC50 was over 1000 nM.

What about the Emax [2, 5] of the same compound?
Its Emax is under 100%.

Which EC50 [1] does the source give for `CC(C)CC[C@H](O)[C@@H](C)[C@H]1CC[C@H]2[C@@H]3CC=C4C[C@@](C)(O)CC[C@]4(C)[C@H]3CC[C@]12C` [Compound 75, (3S,8S,9S,10R,13S,14S,17R)-17-((2S,3S)-3-hydroxy-6-methylheptan-2-yl)-3,10,13-trimethyl-2,3,4,7,8,9,10,11,12,13,14,15,16,17-tetradecahydro-1H-cyclopenta[a]phenanthren-3-ol] here?
The EC50 was over 1000 nM.

What about the Emax [1, 3] of the same compound?
Its Emax is under 100%.

What about the EC50 [2, 4] of the same compound?
Its EC50 is over 1000 nM.

And the Emax [2, 5]?
Its Emax is under 100%.
